Measured values published in patent publication US20060008483A1, “Dispersions of lipids for use as therapeutic and cosmetic agents and intracellular delivery vehicles” (Biotech Tools SA, priority 2002, published 2006).

Columns and labels:
[1] = Critical micellar concentration by surface tension (langmuir balance); type: physicochemical; details: 25° C.
Experimental: The amidinium salt of example 9 was dissolved at various concentrations in either water pH 7.0, PB (20 mM phosphate, pH 7.3) or in PBS (20 mM phosphate buffer, 150 mM NaCl, pH 7.3).
A langmuir balance (Krüss K12) was used to measure the surface tension of a solution of increasing amino-amidine concentration. […] The corresponding concentration was taken as CMC.
To determine the effect of protamine sulfate on the CMC protamine sulfate (PS) was added at a final concentration of 0.2 mg/mL to solutions of increasing concentration of the amidinium salt of Example 9.

[2] = system: COS-7L cells (monkey fibroblasts); experiment: Transfection of fibroblast cells with micellar dispersions of an amidinium salt, beta-galactosidase activity assay; type: cell-based; details: pCMV-β plasmid, relative to Lipofectamine plus, 3 h + 20 h incubation
Experimental: Functional transfection efficiency was then measured by means of a beta-galactosidase (hereinafter referred as β-GAL) activity assay as follows: cells were lysed by adding 250 μl of a lysis buffer (0.1 M potassium phosphate, 0.5% Triton® X-100, 0.1% deoxycholate, pH 7.0). The cell lysate (50 μl) was mixed with 50 μl o-nitrophenyl-β-D-galactopyranoside (1.54 mg/ml in 0.1 potassium phosphate buffer, pH 7.0) and incubated at 37° C. for 30 minutes. The reaction was terminated by adding 160 μl of 1 M Na2CO3 and absorbance was determined using a spectrophotometer at 405 nm. β-GAL activity was calculated using a β-GAL standard curve.
Immediately before the transfection experiments, the amidinium salt of Example 9 was dissolved at a concentration of 0.1 mg/mL in water containing 5.0 g/l glucose and 0.1 mg/mL protamine sulfate. The solution was successively vortexed, heated during 15 minutes at 50° C. and then cooled at 20° C.
COS-7L cells (monkey fibroblasts) were grown in DMEM supplemented with 10% heat inactivated foetal bovine serum and penicellin 100 IU/mL-streptomycin 100 μg/mL, and were maintained at 37° C. in a humidified 5% incubator. […]
(§1) Transfection efficiency was measured in terms of beta-galactosidase activity using the beta-galactosidase activity assay described in Example 5 above. Cytotoxicity was determined as described in Example 2 above.

[3] = system: COS-7L cells (monkey fibroblasts); experiment: Cytotoxicity in the micellar transfection experiment, determined as in Example 2; type: cell-based; details: transfection conditions of Example 12
Experimental: The resulting titrated liposomes were cooled and then passed through a 0.2 μm filter (in order to eliminate large particles) and an average liposome size of 90 nm was measured. Filtered liposomes were then packed in sterile vials and stored at 4° C. […] Cytotoxicity was determined by means of a (3-(4,5-dimethylthiazol-2-yl)-2,5-diphenyl tetrazolium bromide assay, using a kit commercially available from Promega Benelux (Leyden, The Netherlands). COS-7 monkey fibroblast cell survival was expressed as the amount of dye reduction relative to that of the untreated control cells. The titrated liposomes are not toxic on COS-7 cells, as determined by the Cytotox 96 non-radioactive cytotoxy assay G 1780.
COS-7L cells (monkey fibroblasts) were grown in DMEM supplemented with 10% heat inactivated foetal bovine serum and penicellin 100 IU/mL-streptomycin 100 μg/mL, and were maintained at 37° C. in a humidified 5% incubator. One day prior to the transfection experiment, the cells were seeded in a 24-well culture dish and allowed to reach at least 80% confluency.
as §1

[4] = system: Chinese hamster Ovary cells or K562 human myeloid cells; details: MLV, WO 95/17378; cited from earlier work

| CMC ([1]; in PB (20 mM phosphate, pH 7.3)) | CMC ([1]; in PBS (20 mM phosphate buffer, 150 mM NaCl, pH 7.3)) | CMC ([1]; in PBS + protamine sulfate 0.2 mg/mL) | CMC ([1]; in water pH 7.0, in M) | Compound | β-gal relative activity [2] | Toxicity [3] | transfection efficiencies [4] |
| --- | --- | --- | --- | --- | --- | --- | --- |
| 5.25e-05 M | 6.75e-05 M | 2e-05 M | 5×10^−4 | CCCCCCCCCCCCCCN=C(CCNCCCCCCCCCCCCCC)NC(C)(C)C [Example 9, N-terbutyl-N′-tetradecyl-3-tetradecyl-aminopropionamidine] |  |  |  |
|  |  |  |  | CCCCCCCCCCCCCCN=C(CCNCCCCCCCCCCCCCC)NC(C)(C)C [DiC14iPr, N-terbutyl-N′-tetradecyl-3-tetradecyl-aminopropionamidine] | 150% | None | 60 to 68% |
